Data from PubChem BioAssay (NCI).
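Test compounds were applied to cells in 96-well plates for 48 hours at 5 doses. GI50: concentration for 50% inhibition of growth. TGI: total growth inhibition.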

Columns and labels:
Test in all cases: growth of human tumour cells (NCI), 48 h
[1] = system: HOP-62 NSCLC
[2] = system: NCI-H460 lung
[3] = system: M14 melanoma
[4] = system: SF-268 CNS
[5] = system: LOX IMVI melanoma
[6] = system: OVCAR-5 ovarian
[7] = system: SK-MEL-2 melanoma
[8] = system: MDA-MB-231 breast
[9] = system: SF-539 CNS
[10] = system: HOP-92 NSCLC

Row | Compound | GI50 [1] [µM] | TGI [1] [µM] | GI50 [2] [µM] | TGI [2] [µM] | GI50 [3] [µM] | TGI [3] [µM] | GI50 [4] [µM] | TGI [4] [µM] | GI50 [5] [µM] | TGI [5] [µM] | GI50 [6] [µM] | TGI [6] [µM] | GI50 [7] [µM] | TGI [7] [µM] | GI50 [8] [µM] | TGI [8] [µM] | GI50 [9] [µM] | TGI [9] [µM] | GI50 [10] [µM] | TGI [10] [µM]
1 | N=c1ccc2nc3ccc(N)cc3sc-2c1 | 5.06 | 49.4 | 5.23 | > 100 | 4.34 | 21.8 | 6.42 | 56.2 | 2.72 | 12.5 | 7.62 | 24.3 | 6.08 | 22.5 | 3.56 | 20.3 | 3.21 | 8.62 | 17.7 | 61
2 | Cc1ccc(S(=O)(=O)c2nc(-c3ccccc3)oc2S(C)(=O)=O)cc1 | 13.3 | 26.1 | 13.3 | 27.8 | 1.74 | 3.63 | 10.6 | 24.4 | 1.59 | 2.99 | 2.12 | 5.28 | 3.4 | 14.1 | 1.87 | 3.76 | 1.56 | 3.02 | 1.84 | 3.48
3 | C=C1C(=O)O[C@H]2[C@H]1CC/C(COC(=O)N[C@H]1C[C@H](O[C@H]3C[C@](O)(C(=O)CO)Cc4c(O)c5c(c(O)c43)C(=O)c3c(OC)cccc3C5=O)O[C@@H](C)[C@H]1O)=C\CC[C@@]1(C)O[C@@H]21 | 22.7 | > 50 | 9.02 | > 50 | 8.36 | 22.5 | 6.72 | 24.6 | 2.17 | 8.25 | 6.91 | 18 | 7.97 | 17 | 3.21 | 10.7 | 2.37 | 8.43 | 0.838 | 2.28
4 | CC(/C=C/C(O)=C1/C(=O)CNC1=O)=C\[C@@H](C)[C@H]1O[C@@]2(C)O[C@H](C(=O)[C@@H]3O[C@@]32C)[C@@H]1C | – | 43.1 | – | – | – | > 100 | – | 43.9 | – | 33.5 | – | 57.5 | – | 50.1 | – | 38.1 | – | 40 | – | –
5 | Cn1c(=O)n(C)c2cc(CNCCNc3ccnc4cc(Cl)ccc34)ccc21 | 39.4 | > 100 | 20.9 | 60.8 | – | – | 29.4 | > 100 | 14.3 | 30.1 | 20.3 | 65.4 | 22.6 | 52.5 | 11.2 | 45.2 | 14.7 | 29.4 | 10.1 | 49.6
6 | CC(=O)c1cccc(NC(=O)C(=O)c2c(O)c3ccccc3oc2=O)c1 | – | > 100 | – | > 100 | – | > 100 | – | > 100 | – | > 100 | – | > 100 | – | – | – | > 100 | – | > 100 | – | > 100
7 | COc1cc(OC)c2sc(-c3ccc(-n4cncc4-c4ccc(OC)c(OC)c4)cc3)nc2c1 | 35.5 | > 100 | 6.06 | > 100 | > 100 | > 100 | 9.96 | > 100 | > 100 | > 100 | > 100 | > 100 | 41.4 | > 100 | 28.4 | > 100 | > 100 | > 100 | – | –
8 | CCCC1(CN2c3ccccc3Sc3ccc(Cl)cc32)CCN(CC)C1 (configuration not stated) | 1.59 | 3.08 | 1.94 | 3.67 | 1.86 | 3.49 | 1.86 | 3.88 | 1.67 | 3.37 | 1.71 | 3.48 | 2.3 | 4.28 | 1.88 | 3.55 | 1.85 | 3.61 | – | –
9 | Cc1cc(NCc2cc(Nc3ccnc4cc(Cl)ccc34)ccc2F)nc(N2CCOCC2)n1 | – | – | 2 | 4.77 | – | – | 3.08 | 18 | – | – | 2.45 | 6.97 | 1.99 | 4.7 | 1.83 | 4.51 | – | – | 1.34 | 3.13
10 | COc1ccc(Nc2nc(Nc3cc(C)[nH]n3)c3cc(OC)c(OC)cc3n2)cc1 | – | – | 0.569 | 2.09 | 1.31 | 2.89 | 1.35 | 2.92 | 0.441 | 1.7 | 2 | 3.74 | 1.77 | 3.56 | 1.35 | 2.9 | 1.1 | 2.39 | 1.29 | 2.93
11 | COC(=O)C(=O)C(CC(=O)Nc1ccc(C)cc1)C(=O)OC (configuration not stated) | – | > 100 | – | > 100 | – | > 100 | – | > 100 | – | > 100 | – | > 100 | – | > 100 | – | – | – | > 100 | – | > 100
12 | COc1ccc(-c2cnnn2-c2nonc2-n2cccc2)cc1OC | 5.21 | > 100 | 3.75 | > 100 | 3.28 | > 100 | 8.06 | > 100 | – | – | 17.8 | > 100 | – | – | 5.35 | 69.4 | 3.44 | 22.2 | – | –
13 | CC(C)(C)[Si](C)(C)OC1[C@@H](CNC(N)=O)O[C@@H](n2cnc3c(NC(=O)Nc4ccccc4)ncnc32)[C@H]1O[Si](C)(C)C(C)(C)C (some centres not stated) | 6.38 | 12.9 | 1.02 | 1.98 | 2 | 8.11 | 1.04 | 2.36 | 0.856 | 1.56 | 6.65 | 13.5 | 7.09 | 14.9 | 5.49 | 12 | 6.73 | 13.6 | – | –
14 | O=C1/C(=C\c2ccco2)Oc2ccccc21 | – | > 100 | – | > 100 | – | > 100 | – | > 100 | – | > 100 | – | > 100 | – | > 100 | – | > 100 | – | – | – | > 100
15 | COc1ccc(O)c(C(=O)CCC(=O)O)c1 | – | > 10 | – | > 100 | – | > 10 | – | > 100 | – | > 100 | – | > 100 | – | > 100 | – | – | – | > 100 | – | > 100
16 | COc1ccc(C(=O)c2sc3nc(-c4ccccc4OC)ccc3c2N)cc1OC | 18.7 | > 100 | 9.61 | > 100 | 6.05 | > 100 | 11.9 | > 100 | – | – | > 100 | > 100 | – | – | 3.44 | 42.3 | 20 | > 100 | – | –
17 | CC(=O)c1ccc(NC(=O)C(=O)C(C(=O)/C=C/c2ccccc2)C2OC(=O)c3ccccc32)cc1 (configuration not stated) | – | > 100 | – | > 100 | – | > 100 | – | > 100 | – | > 100 | – | > 100 | – | > 100 | – | – | – | > 100 | – | > 100
18 | CC(C)(C)NCC(O)COc1c(Br)c(Br)c(Br)c2c1OC(C)(C)C2 (configuration not stated) | 1.89 | 3.7 | 1.77 | 3.28 | 1.81 | 3.66 | 1.73 | 3.38 | 1.68 | 3.1 | – | – | 1.6 | 3.23 | 1.54 | 3.01 | 1.67 | 3.18 | 1.52 | 3.17
19 | CCSc1ccc([C@@H]2[C@@H](O)C(=O)N2c2cc(OC)c(OC)c(OC)c2)cc1 | < 0.0125 | 32.5 | < 0.0138 | 11.9 | < 0.01 | 15.8 | 0.0504 | 51.7 | < 0.0147 | 14.5 | 0.0526 | > 100 | 0.0221 | 28.4 | 0.0395 | 29.4 | – | – | – | 42.1
20 | COc1cccc(CNc2ncnc3c2ncn3C2OC(CO)C(O)C2O)c1O (configuration not stated) | 0.387 | > 100 | 0.931 | > 100 | 0.248 | > 100 | 0.257 | > 100 | 0.0616 | > 100 | 0.417 | > 100 | 0.656 | > 100 | 0.0302 | 0.111 | 0.144 | 1.85 | – | –
21 | CN/N=C(/c1nc2ccc([N+](=O)[O-])cc2[nH]c1=O)C(O)c1ccc(C(O)/C(=N\NC)c2nc3ccc([N+](=O)[O-])cc3[nH]c2=O)cc1 (configuration not stated) | – | > 100 | – | > 100 | – | > 100 | – | > 100 | – | > 100 | – | > 100 | – | > 100 | – | – | – | > 100 | – | > 100
22 | CCCCCCC(O)CC[C@H]1CCC[C@@H](C)N1 (some centres not stated) | – | > 31.6 | – | > 100 | – | > 100 | – | > 31.6 | – | > 100 | – | < 10 | – | < 10 | – | – | – | > 100 | – | > 100
23 | O=c1c2c(-c3ccccc3)c3ccccc3nc2cnn1-c1ccccc1 | – | > 100 | – | > 100 | – | > 100 | – | > 100 | – | > 100 | – | > 100 | – | > 100 | – | – | – | > 100 | – | > 100
24 | COc1ccc(/C=C2\CCC(CCN(C)C)(C3=CCCC3)C2=O)cc1 (configuration not stated) | – | 36 | – | 40.5 | – | 28.3 | – | 40 | – | 30.8 | – | 47.6 | – | 32.9 | – | – | – | 30.8 | – | 54.1
